# Data from patent US4264736A, “Antibiotic 890A10” (Merck & Co., Inc., priority 1979, dated 1981).
# How the values were obtained:
# [1] = system: Streptococcus faecalis MB No. 753; assay: Antibiotic spectrum profile, agar zone of inhibition; assay type: cell-based; details: Enterococcus faecalis, MBNO.753, 0.015 ml of 9.5 μg/ml aqueous solution, 25° C., read-out: Inhib. Zone Diam.
# [2] = system: various gram-positive and gram-negative bacteria; assay: Antibacterial activity (statement); assay type: cell-based
# [3] = system: Bacillus subtilis ATCC 6633; assay: Antibiotic spectrum profile, agar zone of inhibition; assay type: cell-based; details: ATCC6633, 0.015 ml of 9.5 μg/ml aqueous solution, 25° C., read-out: Inhib. Zone Diam.
# [4] = system: Escherichia coli ATCC 9637; assay: as above; assay type: cell-based; details: ATCC9637, 0.015 ml of 9.5 μg/ml aqueous solution, 25° C., read-out: Inhib. Zone Diam.
# [5] = system: Vibrio percolans MB No. 2566 (res. ceph C); assay: as above; assay type: cell-based; details: Comamonas terrigena, read-out: Inhib. Zone Diam.
# [6] = system: Vibrio percolans ATCC 8461; assay: Bioassay, agar plate disc-diffusion, 890A1 standard; assay type: cell-based; details: measured against standard of antibiotic 890A1 (defined as 250 units per HAEA300 unit)
# Description: An agar plate disc-diffusion method is employed using Vibrio percolans ATCC 8461 as tester organism. A purified sample of antibiotic 890A1 is used as standard. Antibiotic 890A1 is prepared according to the procedure set forth in Example 6.
# Plates containing Vibrio percolans ATCC 8461 are prepared as follows:
# A lyophilized culture of Vibrio percolans ATCC 8461 is suspended in 15 ml. of a sterilized medium containing 8 g./liter of Difco Nutrient Broth and 2 g./liter of yeast extract in distilled water "nutrient broth-yeast extract" (herein after designated NBYE). The culture is incubated overnight on a rotary shaker at 28° C. This culture is used to inoculate the surface of slants containing 1.5% agar in NBYE, and the inoculated slants are incubated overnight at 28° C., and then stored in a refrigerator. […]
# Filter paper discs of one-half inch diameter are dipped into the solution to be assayed, and are placed on the agar. […] The diameter of the zone of inhibition is measured after appropriate incubation (12-14 hours at 25° C.). […]
# Calculations of potencies proceed as follows: a slope is determined by measuring the zone diameters of a solution of antibiotic 890A10 and of a fourfold dilution (in KPB) of this solution. Two discs of each concentration are assayed on a single plate, and the average zone size at each concentration is determined. […] Potencies are then calculated by the formula: [formula] […]
# [7] = system: Klebsiella pneumoniae MB No. 1264; assay: Antibiotic spectrum profile, agar zone of inhibition; assay type: cell-based; details: MBNO.1264, 0.015 ml of 9.5 μg/ml aqueous solution, 25° C., read-out: Inhib. Zone Diam.
# [8] = system: Erwinia atroseptica ATCC 4446; assay: as above; assay type: cell-based; details: Pectobacterium atrosepticum, ATCC4446, 0.015 ml of 9.5 μg/ml aqueous solution, 25° C., read-out: Inhib. Zone Diam.
# [9] = Stability in aqueous solution under acidic conditions; assay type: physicochemical; details: free acid form not isolated
# [10] = system: Proteus mirabilis MB No. 3126; assay: Antibiotic spectrum profile, agar zone of inhibition; assay type: cell-based; details: MBNO.3126, 0.015 ml of 9.5 μg/ml aqueous solution, 25° C., read-out: Inhib. Zone Diam.
# [11] = system: Corynebacterium psedodiph. ATCC 9742; assay: as above; assay type: cell-based; details: ATCC9742, 0.015 ml of 9.5 μg/ml aqueous solution, 25° C., read-out: Inhib. Zone Diam.
# [12] = system: Staphylococcus aureus MB No. 698; assay: as above; assay type: cell-based; details: MBNO.698, 0.015 ml of 9.5 μg/ml aqueous solution, 25° C., read-out: Inhib. Zone Diam.
# [13] = system: Pseudomonas aeruginosa MB No. 2824; assay: as above; assay type: cell-based; details: MBNO.2824, 0.015 ml of 9.5 μg/ml aqueous solution, 25° C., read-out: Inhib. Zone Diam.
# [14] = system: Vibrio percolans ATCC 8461; assay: as above; assay type: cell-based; details: Comamonas terrigena, ATCC8461, 0.015 ml of 9.5 μg/ml aqueous solution, 25° C., read-out: Inhib. Zone Diam.
structure (smiles),measurement,setting,value
CC(=O)NCCSC1=C(C(=O)O)N2C(=O)C(C(C)OS(=O)(=O)O)C2C1 (centres unmarked) [Antibiotic 890A10],zone of inhibition at 9.5 µg/mL,[1],0 mm
same,antibacterial activity,[2],active against various gram-positive and gram-negative bacteria
same,zone of inhibition at 9.5 µg/mL,[3],30 mm
same,zone of inhibition at 9.5 µg/mL,[4],17 mm
same,zone of inhibition at 9.5 µg/mL,[5],22 mm
same,bioassay units per HAEA300 unit,[6],174 bioassay units per HAEA300 unit
same,zone of inhibition at 9.5 µg/mL,[7],19 mm
same,zone of inhibition at 9.5 µg/mL,[8],10 mm
same,stability under acidic conditions in aqueous solution,[9],unstable
same,zone of inhibition at 9.5 µg/mL,[10],29 mm
same,zone of inhibition at 9.5 µg/mL,[11],12 mm
same,zone of inhibition at 9.5 µg/mL,[12],23 mm
same,zone of inhibition at 9.5 µg/mL,[13],0 mm
same,zone of inhibition at 9.5 µg/mL,[14],33 mm
